{
  "source": "paper PMC8952364",
  "about": "“Polyphenols as Inhibitors of Antibiotic Resistant Bacteria—Mechanisms Underlying Rutin Interference with Bacterial Virulence” (Pharmaceuticals, 2022)",
  "key": {"[1]": {"system": "24 h old P. aeruginosa IBRS P001 biofilms", "experiment": "Biofilm eradication, eDNA assay", "assay_type": "cell-based, Pseudomonas aeruginosa", "conditions": "MBC–4 MBC, Figure 5D", "method": "(§1) The quantity of eDNA was determined as previously described, with some modifications. […] Subsequently, the planktonic cells were removed, and the wells were washed with PBS. TE buffer (Tris-EDTA buffer solution) was added to the wells and content was mixed vigorously by pipetting. The samples were transferred to 1.5 mL tubes and centrifuged at 10,000× g for 10 min. After removal of the supernatant, the pellet was suspended in a TE buffer by vortexing. Absorbance of the supernatant (260 nm) was measured after centrifugation at 10,000× g for 15 min. We calculated the inhibition percentage of eDNA relative to an untreated control. The solvent treated sample was used as the control.\nThe bacterial cells were incubated in TSB enriched with 2% glucose in 96-well plates (Sarstedt, Germany) with adhesive bottom at 37 °C for 24 h. After incubation, wells were washed with PBS, and rutin (MBC–4 MBC) in TSB with 2% glucose was added. Incubation continued at 37 °C for another 24 h. The planktonic cells were removed.\nThe assays continued as described above for the crystal violet antibiofilm assay for the measurement of biofilm mass, biofilm MTT assay for the interference with cell viability, Congo red binding assay for estimation of exopolysaccharide production, and eDNA assay."}, "[2]": {"system": "P. aeruginosa IBRS P001 pyocyanin production", "experiment": "Pyocyanin assay", "assay_type": "cell-based, Pseudomonas aeruginosa", "conditions": "0.25 mg/mL (0.5 MIC), compared to the control", "method": "Pyocyanin extraction from the culture supernatant was performed using chloroform in a 1:2 ratio [71]. The second extraction of the chloroform phase was done by 0.2 N HCl (3:1 ratio). The pyocyanin concentration was evaluated by recording the absorbance at 520 nm using a Plate Reader Infinite 200 pro (MTX Lab Systems, Vienna, VA, USA). The pyocyanin concentration was calculated by multiplication of the absorbance (A520) by 17.072. A solvent-treated culture supernatant was used as a positive control."}, "HaCaT cells": {"system": "HaCaT cells", "experiment": "Cytotoxicity in HaCaT cell line (crystal violet assay)", "assay_type": "cell-based, human", "conditions": "Homo sapiens, HaCaT, 24 h, read-out: IC50 (compound concentration that inhibited 50% of the cell growth)", "in_short": "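HaCaT keratinocytes seeded 1 × 10^4 cells/well 24 h before treatment, then exposed to polyphenols for 24 h. Viable cells stained with crystal violet, absorbance at 590 nm. IC50 in μg/mL, triplicate with three readings each, mean ± SD.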"}, "[3]": {"system": "P. aeruginosa IBRS P001 biofilm", "experiment": "Congo red binding assay, exopolysaccharide production (biofilm formation)", "assay_type": "cell-based, Pseudomonas aeruginosa", "method": "The estimation of rutin’s impact on biofilm exopolysaccharide production (EPS) was determined by the Congo red binding assay. P. aeruginosa IBRS P001 biofilm EPS production was determined as previously described. […] The planktonic cells were removed, and the adherent cells were washed with PBS. Wells were stained with 1% (w/v) Congo red (SigmaAldrich, Germany) in the dark for 30 min. Wells were aspirated and subsequently the bound dye was solubilized with 200 μL DMSO. Absorbance at 490 nm was measured in a microtiter plate reader Multiskan™ FC microplate photometer (Thermo Scientific™, United States) and the inhibition percentage of EPS production was calculated according to the following equation:%Inhibition = [(A490control − A490sample)/A490control] × 100\nWith A490control representing the absorbance of the untreated biofilm and A490sample the absorbance of the rutin treated sample. The solvent treated sample was used as the control."}, "EPS production": {"system": "EPS production", "design": "method as in doi:10.1016/j.foodcont.2018.02.044", "conditions": "200 µg/mL of rutin; cited from earlier work"}, "[4]": {"system": "P. aeruginosa IBRS P001 biofilm", "experiment": "Quantification of eDNA (biofilm formation)", "assay_type": "cell-based", "conditions": "Pseudomonas aeruginosa, IBRSP001BIOFILM; 0.25 MIC, 0.125 mg/mL; read-out: inhibition of eDNA levels", "method": "as §1"}, "P. aeruginosa IBRS P001": {"system": "P. aeruginosa IBRS P001", "experiment": "Catheter biofilm inhibition model", "assay_type": "cell-based, Pseudomonas aeruginosa", "conditions": "MIC and 0.5 MIC of rutin, 24 h", "method": "The method was performed as described previously, with some modifications. Sterile silicon 16-mm Romed catheters (Van Oostveen Medical, Wilnis, The Netherlands) were cut into 1 cm lengths and placed in 24-well plates (Sarstedt, Nümbrecht, Germany). P. aeruginosa IBRS P001 and MRSA in TSB with 2% glucose (Torlak, Belgrade, Serbia) and rutin (0.25–1 MIC) were added for the inhibition assay. After incubation (37 °C, 24 h), the catheters were washed with PBS and transferred to 1.5 mL tubes. PBS was added and tubes were vortexed vigorously. The samples were diluted and seeded onto Plate Count Agar (HiMedia Laboratories, Mumbai, India). After being incubated at 37 °C for 24 h, the CFU (colony forming units) count was determined and the inhibition percentage relative to the untreated control was calculated."}, "S. infantis 1371/1": {"system": "S. infantis 1371/1", "experiment": "Antimicrobial microdilution assay (MIC/MBC)", "assay_type": "cell-based, Salmonella Infantis", "conditions": "Salmonella enterica, 1371/1", "in_short": "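Polyphenols 0.0039–1 mg/mL, stocks in 30% ethanol; inoculum 0.5 McFarland diluted twenty-fold, mixed 1:10; 24 h, 37 °C. MIC = no visible growth (binocular microscope). Streptomycin positive control, ethanol negative control; triplicate.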"}},
  "data": [
    {"smiles": "C[C@@H]1O[C@@H](OC[C@H]2O[C@@H](Oc3c(-c4ccc(O)c(O)c4)oc4cc(O)cc(O)c4c3=O)[C@H](O)[C@@H](O)[C@@H]2O)[C@H](O)[C@H](O)[C@H]1O", "note": "[Rutin, rutin]", "values": [
      {"measurement": "levels of eDNA in the biofilm matrix, in words", "setting": "[1]", "value": "significantly reduced"},
      {"measurement": "decrease of pyocyanin production", "setting": "[2]", "value": 82.1, "unit": "%"},
      {"measurement": "IC50", "setting": "HaCaT cells", "value": "> 1000", "unit": "µg/mL"},
      {"measurement": "exopolysaccharide level, % of production compared to vehicle treated control", "setting": "[3]; 0.25 MIC", "value": 72, "unit": "%"},
      {"measurement": "exopolysaccharide level, % of production compared to vehicle treated control", "setting": "[3]; 0.5 MIC", "value": 56, "unit": "%"},
      {"measurement": "exopolysaccharide level, % of production compared to vehicle treated control", "setting": "[3]; MIC", "value": 50, "unit": "%"},
      {"measurement": "inhibition at 250 µg/mL", "setting": "[3]; Pseudomonas aeruginosa, IBRSP001BIOFILM, read-out: inhibition of produced exopolysaccharides", "value": 44, "unit": "%"},
      {"measurement": "inhibition of EPS production", "setting": "EPS production", "value": "more than 40%"},
      {"measurement": "inhibition at 125 µg/mL", "setting": "[4]", "value": "> 50", "unit": "%"},
      {"measurement": "biofilm inhibition on catheter", "setting": "P. aeruginosa IBRS P001", "value": 100, "unit": "%"},
      {"measurement": "number of colonies attached to the urinary catheters", "setting": "P. aeruginosa IBRS P001", "value": 0},
      {"measurement": "MIC", "setting": "S. infantis 1371/1; 37 °C, 24 h, read-out: MIC", "value": 1000, "unit": "µg/mL"},
      {"measurement": "MBC", "setting": "S. infantis 1371/1; subcultivation, 24 h at 37 °C, read-out: MBC", "value": 1000, "unit": "µg/mL"}
    ]}
  ]
}
